Results from patent US12410155B2, “Salt form and crystal form of tetrahydrocyclohepta indazole compound” (Zhejiang Yangli Pharmaceutical Technology Co., Ltd., priority 2021, dated 2025).

Experiments:
[1] = system: MCF-7 ESR1-Y537S; assay: Proliferation inhibition assay, MCF-7 ESR1-Y537S mutant cell line; assay type: cell-based; details: Homo sapiens, MCF7, 168 h, 7 days
Method: The tumor cell lines were cultured in an incubator at 37° C. with 5% CO2. Regular passaging was performed, and cells in the logarithmic growth phase were selected for plating.
• 1) Cells were stained with trypan blue and viable cells were counted. • 2) Cells were washed once with PBS and resuspended in RPMI 1640+10% FBS medium without phenol red. The concentration was adjusted to an appropriate one. • 3) 135 μL of the cell suspension per well was added to a culture plate, and cell-free culture medium was added to the blank control well. • 4) The plates were incubated overnight at 37° C. with 5% CO2 and 100% relative humidity. 3. Preparation of 10× Compound Working Solution and Treatment of Cells • 1) Preparation of 10× compound working solution: 199 μL of cell culture medium was added to V-bottom 96-well plates. From a 2000× compound storage plate, 1 μL of the compound was added to the 96-well plate containing cell culture medium. 1 μL of DMSO was added to vehicle control and blank control. […] The final concentration of DMSO was 0.05%. • 3) The 96-well cell plate was returned to the incubator for further culture, and cell viability was assessed after 7 days. […]
The inhibition rate (IR) of the compound was calculated using the following formula:
[formula] Inhibition rates for different concentrations of the compound were calculated in Excel. […]

[2] = biological target: T1, CYP1A2 (Homo sapiens, UniProt P05177); assay: Inhibition of cytochrome P450 isozymes in human liver microsomes, CYP1A2; assay type: in vitro ADME; details: phenacetin substrate
T1 sequence (P05177 1-516): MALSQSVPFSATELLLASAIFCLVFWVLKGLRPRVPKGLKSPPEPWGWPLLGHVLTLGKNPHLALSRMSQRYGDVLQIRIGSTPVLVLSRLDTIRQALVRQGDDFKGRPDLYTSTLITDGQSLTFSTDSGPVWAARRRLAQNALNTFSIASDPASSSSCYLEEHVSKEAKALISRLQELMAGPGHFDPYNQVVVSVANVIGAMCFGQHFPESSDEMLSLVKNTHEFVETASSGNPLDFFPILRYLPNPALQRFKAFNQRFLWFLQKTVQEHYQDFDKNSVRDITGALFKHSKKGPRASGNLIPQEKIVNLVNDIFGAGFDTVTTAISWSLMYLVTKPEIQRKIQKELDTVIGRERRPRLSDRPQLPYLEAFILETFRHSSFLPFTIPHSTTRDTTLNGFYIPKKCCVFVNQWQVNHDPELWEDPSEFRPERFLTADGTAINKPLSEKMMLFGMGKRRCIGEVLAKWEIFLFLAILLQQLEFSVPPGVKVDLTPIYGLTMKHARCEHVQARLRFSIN
Method: (1) Study on the Inhibition of Cytochrome P450 Isozymes
The probe substrate, test compound, human liver microsomes, and cofactors were incubated together. The concentration of the metabolic product of the probe substrate was detected using LC-MS/MS to calculate the IC50 values. In the vehicle control samples, the test compound was replaced with an equal volume of vehicle, and the enzyme activity of the vehicle control samples was set as 100%. […]
Upon reaching the respective reaction times for the incubation systems of the various isoenzymes, 200 μL of termination solution containing the appropriate internal standard was added to the reaction plate to terminate the reaction. […] The metabolites of the probe substrates were then analyzed using LC-MS/MS. […]
The activity of various CYP isoenzymes was reflected by the production rate of metabolites from each probe substrate. […] The residual activity percentage of each isoenzyme was determined by comparing the metabolite production rate of the probe substrate in the presence of different concentrations of the test compound or positive inhibitor to that of the vehicle control samples, then multiplying by 100%. […]

`FCCCN1CC[C@H](Nc2cnc(C3=C(CC(F)(F)F)CCCc4c3ccc3[nH]nc(F)c43)cn2)C1` [Compound of formula (I)] gave an IC50 ([1]; read-out: Relative IC50) of 11.2 nM, an IC90 ([1]; read-out: Relative IC90) of 101 nM and an IC50 [2] of 97200 nM.
